Blank lines part the entries; values can stand above or below the molecule they belong to.
How the values were obtained:
[1] = target: rat GHRH receptor (rat) (UniProt Q02644); assay: competition with [125I-Tyr10]hGHRH(1-44)-NH2, rat anterior pituitary membrane preparations
[2] = target: human GHRH receptor (human) (UniProt Q02643); assay: competition with [125I-Tyr10]hGHRH(1-44)NH2, BHK cell membrane preparations expressing the human GHRH receptor; details: for Relative binding affinity (R1) in comparison with hGHRH(1-29)NH2: scale: ratio IC50 of hGHRH
[3] = In vitro proteolysis assay in rat serum; format: in vitro ADME; details: incubation 0 min
Experimental: (§1) Proteolysis was stopped by adding 800 μl of ice-cold stop buffer (potassium-phosphate buffer, acidified to pH 0.8 with trifluoroacetic acid (TFA) and boiling 5 min (rat serum only). After centrifugation (12000 g, 5 min, 4° C.) (rat serum only), serum-peptide mixtures were passed through a conditioned Sep-Pak C-18 cartridge to extract native GHRH or a GHRH analog residual concentrations from serum proteins. The native GHRH or the analog was eluted in 2 ml of 50% acetonitrile-0.01% TFA/50% 0.01% aqueous TFA. 200 μl of extracted peptide, representing 1 μg of GHRH or analog at time 0, was quantified by analytical HPLC, using one μ-Bondapak C18 column (10 μm particle size, 0.39×15 cm) (rat serum) or two C18 columns in series (human serum and plasma) and a binary solvent system composed of NaClO4 0.01 M, pH 2.5 and acetonitrile. A linear gradient from 30 to 60% acetonitrile over 45 min (rat serum) or 30 to 50% (human serum and plasma) was used. Elution of intact peptide was monitored at 214 nm and residual concentration determined by assessment of peak surface areas.

[4] = In vitro proteolysis assay in human serum; format: in vitro ADME; details: human serum
Experimental: as §1

[5] = test system: Rat Growth Hormone; assay: In vivo GH secretion in adult female Sprague-Dawley rats, single SC or IV injection, RIA; details: 0.03 mg/kg BW IV
Experimental: In order to assess such use of the GHRH analogs, the following experiments were undertaken. More specially, the goal was to assess the pharmacodynamic and pharmacokinetic profiles and acute toxicity of GHRH analog #5 when administered once by subcutaneous or intravenous injection to female Sprague-Dawley rats followed by a 14-day observation period and the pharmacodynamic profile in a male Beagle dog when the GHRH analog was administered at escalating doses to the same dog by subcutaneous injection with at least 2-day washout period. The above GHRH analog is a variation of a synthetic acetate salt of an amidated synthetic 29-amino acid peptide that corresponds to the amino-terminal segment of the naturally-occurring human growth hormone—releasing hormone (GHRH) with four amino acid substitutions in positions 2, 10, 15, and 22.
Human GHRH analog #5 in 0.9% sodium chloride for injection USP was administered once either by intravenous (IV) or subcutaneous (SC) injection to female rats followed by a 14-day observation period, as shown in Table 2. Prior to administration, all dosing formulations were filtered using a 0.22 μm filter to ensure sterility. The actual amount of GHRH analog #5 administered was calculated and adjusted based on the animal's most recent body weight. Dosing started at approximately the same time each day, commencing at 9:00 am ±30 minutes.
For pharmacodynamic investigations, blood samples (approximately 1.3 ml) were collected from 2 animals per group per time point (maximum 3 time points/animal) via a jugular venipuncture at the following time points: […] All blood samples were collected into potassium EDTA tubes and centrifuged under refrigeration (2 to 8° C., 1500 g for 10 minutes).
Rat Growth Hormone Determination • Plasma GH was determined by Linco Diagnostic Services using their own kit. Linco's Rat Growth Hormone radioimmunoassay kit (RIA) (RGH-45HK) is intended for the quantitative determination of Rat Growth Hormone in serum, plasma, and tissue culture media. It is a completely homologous assay since the antibody was raised against recombinant Rat Growth Hormone and both the tracer and the standard are prepared with the same recombinant Rat Growth Hormone. The kit includes standards, antibody, tracer, quality controls, precipitating reagents and buffer necessary to complete a RIA. The assay was conducted under the following conditions: overnight; equilibrium incubation at room temperature; sample volume: 100 μl serum, plasma, or cell culture media. The label used was 125I-Rat Growth Hormone (20,000 CPM/tube).

[6] = test system: Canine Growth Hormone; assay: In vivo GH secretion in a male Beagle dog, escalating SC doses, RIA; details: 0.01 mg/kg BW SC
Description: In order to assess such use of the GHRH analogs, the following experiments were undertaken. […] The above GHRH analog is a variation of a synthetic acetate salt of an amidated synthetic 29-amino acid peptide that corresponds to the amino-terminal segment of the naturally-occurring human growth hormone—releasing hormone (GHRH) with four amino acid substitutions in positions 2, 10, 15, and 22.
Prior to administration, all dosing formulations were filtered using a 0.22 μm filter to ensure sterility. […] Dosing started at approximately the same time each day, commencing at 9:00 am ±30 minutes.
For pharmacodynamic investigations, blood samples (approximately 1.0 ml) were collected from the dog on each treatment day via a jugular venipuncture at the following time points: pre-dose, 7, 15, 22, 30, 45, and 60 minutes post dosing. All blood samples were collected into potassium EDTA tubes and centrifuged under refrigeration (2 to 8° C., 1500 g for 10 minutes).
Plasma GH was determined by Linco Diagnostic Services using their own kit. Linco's Porcine/Canine Growth Hormone radioimmunoassay kit (RIA) (PGH-46HK) has been developed to quantitate Growth Hormone in plasma, serum, and tissue culture media. It is a completely homologous assay since the antibody was raised against recombinant Porcine Growth Hormone and both the standard and tracer are prepared with recombinant Porcine Growth Hormone. Since the amino acid sequences of Porcine Growth Hormone and Canine Growth Hormone are identical, this assay developed for Porcine Growth Hormone measures Canine Growth Hormone levels with equal efficiency. All components are included (standards, antibody, tracer, quality controls, precipitating reagents and buffer) necessary to complete a RIA. The assay was conducted under the following conditions: overnight; equilibrium incubation at room temperature; sample volume: 100 μl serum, plasma, or cell culture media.

- Relative binding affinity in rat anterior pituitary (relative to hGHRH(1-29)-NH2) [1]: 5
- IC50 [2]: 37 nM
- Relative binding affinity (R1) in comparison with hGHRH(1-29)NH2 [2]: 0.05
Molecule: [D-Ala2, Ala8, D-Tyr10, Ala15, D-Lys21, Lys22] hGHRH(1-29)-NH2 (peptide)

- Relative binding affinity in rat anterior pituitary (relative to hGHRH(1-29)-NH2) [1]: 7.74
- IC50 [2]: 0.77 nM
- Relative binding affinity (R1) in comparison with hGHRH(1-29)NH2 [2]: 3.7
Molecule: [Ala8, Ala9, Ala15, Ala22] hGHRH(1-29)-NH2 (peptide)

- Residual concentration (% of initial concentration) [3]: 100 ± 0 % of initial concentration
- Mean residual amount (%) ([4]; IT 0 min): 100%
- Mean residual amount (%) ([4]; IT 420 min): disappeared totally
Molecule: CC[C@H](C)[C@H](NC(=O)[C@H](C)NC(=O)[C@H](CC(=O)O)NC(=O)[C@H](C)NC(=O)[C@@H](N)Cc1ccc(O)cc1)C(=O)N[C@@H](Cc1ccccc1)C(=O)N[C@H](C(=O)N[C@@H](CC(N)=O)C(=O)N[C@@H](CO)C(=O)N[C@@H](Cc1ccc(O)cc1)C(=O)N[C@@H](CCCNC(=N)N)C(=O)N[C@@H](CCCCN)C(=O)N[C@H](C(=O)N[C@@H](CC(C)C)C(=O)NCC(=O)N[C@@H](CCC(N)=O)C(=O)N[C@@H](CC(C)C)C(=O)N[C@@H](CO)C(=O)N[C@@H](C)C(=O)N[C@@H](CCCNC(=N)N)C(=O)N[C@@H](CCCCN)C(=O)N[C@@H](CC(C)C)C(=O)N[C@@H](CC(C)C)C(=O)N[C@@H](CCC(N)=O)C(=O)N[C@@H](CC(=O)O)C(=O)N[C@H](C(=O)N[C@@H](CCSC)C(=O)N[C@@H](CO)C(=O)N[C@@H](CCCNC(=N)N)C(N)=O)[C@@H](C)CC)C(C)C)[C@@H](C)O [hGHRH(1-29)NH2, reference compound]

Molecule: hGHRH(1-44)NH2 [reference compound]
- Plasma Rat Growth Hormone ([5]; 4 min): 43.7 ng/mL
- Plasma Rat Growth Hormone ([5]; 10 min): 83.9 ng/mL
- Plasma Rat Growth Hormone ([5]; 15 min): 27.9 ng/mL
- Plasma Rat Growth Hormone ([5]; 45 min): 14.1 ng/mL
- Plasma Rat Growth Hormone ([5]; 300 min): 21.7 ng/mL
- GH AUC 45 min ([5]; in ng·min/mL (unit assumed)): 1380
- GH AUC 300 min ([5]; in ng·min/mL (unit assumed)): 5754
- Plasma Rat Growth Hormone ([5]; −120 min): 20.2 ng/mL
- Canine Growth Hormone ([6]; 0 min): 5 ng/mL
- Canine Growth Hormone ([6]; 7 min): 1 ng/mL
- Canine Growth Hormone ([6]; 15 min): 1.99 ng/mL
- Canine Growth Hormone ([6]; 22 min): 4 ng/mL
- Canine Growth Hormone ([6]; 30 min): 5 ng/mL
- Canine Growth Hormone ([6]; 45 min): 3 ng/mL
- Canine Growth Hormone ([6]; 60 min): 1.99 ng/mL

- Relative binding affinity in rat anterior pituitary (relative to hGHRH(1-29)-NH2) [1]: 13.3
- IC50 [2]: 0.033 nM
- Relative binding affinity (R1) in comparison with hGHRH(1-29)NH2 [2]: 499
Molecule: [D-Ala2, Ala8, Ala15, Lys22] hGHRH(1-29)-NH2 (peptide)

- Relative binding affinity in rat anterior pituitary (relative to hGHRH(1-29)-NH2) [1]: 4.9
- IC50 [2]: 0.0063 nM
- Relative binding affinity (R1) in comparison with hGHRH(1-29)NH2 [2]: 239
Molecule: [D-Ala2, D-Tyr10, Lys22] hGHRH(1-29)-NH2 (peptide)

Reference: patent publication US20090088380A1, “GHRH ANALOGS AND THERAPEUTIC USES THEREOF” (priority 2007, published 2009)
